Results from ChEMBL document CHEMBL5365528, “Expanding the Role of Boron in New Drug Chemotypes: Properties, Chemistry, Pharmaceutical Potential of Hemiboronic Naphthoids” (J Med Chem, 2023).
Values after ≈ are worked out from the molar mass of the structure shown. Active and inactive are the calls of the source. The calls are words filed in the database; no cut-off is given here.

Tests used:
[1] = Permeability of the compound across apical to basolateral membrane in human Caco-2 cells at 10 uM measured for 90 mins by LC-MS/MS analysis; type: ADME, cell-based
Staphylococcus aureus [2] = test: Antibacterial activity against Staphylococcus aureus ATCC 43300 assessed as inhibition of bacterial growth at 100 uM incubated for 18 hrs; type: functional, organism-based
Candida albicans [3] = test: Antifungal activity against Candida albicans UAMH 3489 assessed as inhibition of fungal growth incubated for 24 hrs; type: functional
[4] = Hepatic blood flow in human; type: ADME
[5] = Permeability of the compound across basolateral to apical membrane in human Caco-2 cells at 10 uM measured for 90 mins by LC-MS/MS analysis; type: ADME, cell-based
[6] = Dissociation constant, pKa of the compound in aqueous phosphate buffer with 3 to 4% DMSO; type: physicochemical
[7] = Lipophilicity, log P of the compound in octanol/water by RP-HPLC analysis; type: physicochemical
[8] = Half life in human hepatocytes at 1 uM by LC-MS/MS analysis; type: ADME, cell-based, Hepatocyte
[9] = Stability of the compound in d6-DMSO with drop of D2O and measured for >1 month at room temperature by NMR spectroscopy; type: physicochemical; settings: time > 1 months, read-out: Stability
[10] = Clearance in human hepatocytes at 1 uM measured per million cells by LC-MS/MS analysis; type: ADME, cell-based, Hepatocyte; settings: read-out: CLH
[11] = Efflux ratio of permeability across basolateral to apical membrane over apical to basolateral membrane in human Caco-2 cells at 10 uM measured for 90 mins by LC-MS/MS analysis; type: ADME, cell-based
[12] = Dissociation constant, pKa of the compound in 1:1 CH3CN/aqueous phosphate buffer; type: physicochemical
[13] = Kinetic solubility of the compound in PBS buffer at pH 7.4 measured after 2 hrs by LC-MS/MS analysis; type: physicochemical; settings: read-out: Kinetic_solubility
[14] = Lipophilicity, log D of the compound in Octanol/PBS buffer at pH 7.4 measured after 1 hr by LC-MS/MS analysis; type: physicochemical
[15] = Protein binding in human plasma at 1 uM measured after 6 hrs by LC-MS/MS analysis; type: ADME, cell-free; settings: read-out: PPB (converted)
[16] = biological target: T1, Poly [ADP-ribose] polymerase 1 (Homo sapiens, UniProt P09874); test: Inhibition of N-terminal GST-tagged full length human PARP1 (2 to 1014 residues) expressed in baculovirus-infected Sf9 cells using histone as substrate incubated for 60 mins in presence of activated DNA, NAD+, NAD+-biotin by luminescence based analysis
[17] = biological target: T2, Poly [ADP-ribose] polymerase 2 (Homo sapiens, UniProt Q9UGN5); test: Inhibition of N-terminal GST-tagged human PARP2 (2 to 583 residues) expressed in baculovirus-infected Sf9 cells using histone as substrate incubated for 60 mins in presence of activated DNA, NAD+, NAD+-biotin by luminescence based analysis
Staphylococcus aureus [18] = test: Antibacterial activity against Staphylococcus aureus ATCC 43300 assessed as inhibition of bacterial growth incubated for 18 hrs; type: functional
[19] = biological target: 3',5'-cyclic-AMP phosphodiesterase 4B (Homo sapiens) (UniProt Q07343); test: Inhibition of N-terminal GST-tagged full length human PDE4B1 (1 to 736 residues) expressed in baculovirus-infected Sf9 cells using FAM-cAMP as substrate at 0.1 uM measured after 60 mins by fluorescence based analysis
[20] = biological target: 3',5'-cyclic-AMP phosphodiesterase 4B (Homo sapiens) (UniProt Q07343); test: Inhibition of N-terminal GST-tagged full length human PDE4B1 (1 to 736 residues) expressed in baculovirus-infected Sf9 cells using FAM-cAMP as substrate at 2 uM measured after 60 mins by fluorescence based analysis
Candida albicans [21] = test: Antifungal activity against Candida albicans UAMH 3489 assessed as inhibition of fungal growth at 100 uM incubated for 24 hrs; type: functional, organism-based
[22] = biological target: T1, Poly [ADP-ribose] polymerase 1; test: Inhibition of N-terminal GST-tagged full length human PARP1 (2 to 1014 residues) expressed in baculovirus-infected Sf9 cells using histone as substrate at 1000 nM incubated for 60 mins in presence of activated DNA, NAD+, NAD+-biotin by luminescence based analysis
[23] = biological target: T2, Poly [ADP-ribose] polymerase 2; test: Inhibition of N-terminal GST-tagged human PARP2 (2 to 583 residues) expressed in baculovirus-infected Sf9 cells using histone as substrate at 1000 nM incubated for 60 mins in presence of activated DNA, NAD+, NAD+-biotin by luminescence based analysis

T1 sequence (P09874 whole entry, the tested form may be a part): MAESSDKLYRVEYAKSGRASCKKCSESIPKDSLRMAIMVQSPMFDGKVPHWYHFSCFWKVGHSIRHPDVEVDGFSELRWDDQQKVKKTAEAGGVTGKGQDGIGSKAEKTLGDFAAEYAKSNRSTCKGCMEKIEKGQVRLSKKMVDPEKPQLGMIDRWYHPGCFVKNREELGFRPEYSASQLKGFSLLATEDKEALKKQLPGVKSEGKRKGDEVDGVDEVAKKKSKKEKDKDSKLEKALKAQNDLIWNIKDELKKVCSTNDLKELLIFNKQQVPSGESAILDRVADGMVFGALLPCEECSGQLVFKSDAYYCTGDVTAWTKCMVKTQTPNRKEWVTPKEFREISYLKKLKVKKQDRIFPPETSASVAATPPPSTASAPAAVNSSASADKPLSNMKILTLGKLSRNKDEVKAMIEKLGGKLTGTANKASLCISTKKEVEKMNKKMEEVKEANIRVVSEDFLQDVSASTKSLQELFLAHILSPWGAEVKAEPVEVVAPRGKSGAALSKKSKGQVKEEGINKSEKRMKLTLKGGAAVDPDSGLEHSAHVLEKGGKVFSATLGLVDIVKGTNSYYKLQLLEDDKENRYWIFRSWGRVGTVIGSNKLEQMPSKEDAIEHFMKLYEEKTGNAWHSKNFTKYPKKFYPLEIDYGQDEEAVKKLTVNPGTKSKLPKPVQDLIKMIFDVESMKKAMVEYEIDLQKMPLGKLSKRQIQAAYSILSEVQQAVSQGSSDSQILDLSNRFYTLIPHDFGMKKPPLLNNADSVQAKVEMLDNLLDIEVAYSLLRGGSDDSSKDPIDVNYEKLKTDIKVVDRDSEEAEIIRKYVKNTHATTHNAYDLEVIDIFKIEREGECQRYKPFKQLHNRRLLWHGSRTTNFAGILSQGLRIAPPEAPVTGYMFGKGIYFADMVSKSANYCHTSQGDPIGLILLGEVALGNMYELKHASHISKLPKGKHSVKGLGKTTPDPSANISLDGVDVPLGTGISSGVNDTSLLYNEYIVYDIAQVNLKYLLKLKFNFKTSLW
Chain of 3',5'-cyclic-AMP phosphodiesterase 4B (Homo sapiens) (Q07343 whole entry, the tested form may be a part): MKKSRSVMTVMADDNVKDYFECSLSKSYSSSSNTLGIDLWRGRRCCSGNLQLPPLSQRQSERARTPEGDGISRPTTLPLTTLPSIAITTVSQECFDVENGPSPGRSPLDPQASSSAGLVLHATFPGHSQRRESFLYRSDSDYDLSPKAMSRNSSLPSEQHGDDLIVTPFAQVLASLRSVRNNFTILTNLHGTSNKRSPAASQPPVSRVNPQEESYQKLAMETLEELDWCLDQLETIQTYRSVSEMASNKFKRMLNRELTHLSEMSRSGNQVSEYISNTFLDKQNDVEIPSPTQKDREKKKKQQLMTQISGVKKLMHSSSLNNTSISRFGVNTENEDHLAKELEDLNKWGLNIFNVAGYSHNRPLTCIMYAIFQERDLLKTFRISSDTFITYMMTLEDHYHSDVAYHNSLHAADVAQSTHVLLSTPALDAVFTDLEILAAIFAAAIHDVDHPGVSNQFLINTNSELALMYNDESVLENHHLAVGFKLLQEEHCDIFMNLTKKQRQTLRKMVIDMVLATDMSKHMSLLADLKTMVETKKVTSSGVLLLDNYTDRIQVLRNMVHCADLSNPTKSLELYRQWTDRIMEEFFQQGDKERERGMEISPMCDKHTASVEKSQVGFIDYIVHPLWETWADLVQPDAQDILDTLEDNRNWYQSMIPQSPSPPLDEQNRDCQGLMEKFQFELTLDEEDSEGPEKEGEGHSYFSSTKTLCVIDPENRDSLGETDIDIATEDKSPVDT
T2 sequence (Q9UGN5 whole entry, the tested form may be a part): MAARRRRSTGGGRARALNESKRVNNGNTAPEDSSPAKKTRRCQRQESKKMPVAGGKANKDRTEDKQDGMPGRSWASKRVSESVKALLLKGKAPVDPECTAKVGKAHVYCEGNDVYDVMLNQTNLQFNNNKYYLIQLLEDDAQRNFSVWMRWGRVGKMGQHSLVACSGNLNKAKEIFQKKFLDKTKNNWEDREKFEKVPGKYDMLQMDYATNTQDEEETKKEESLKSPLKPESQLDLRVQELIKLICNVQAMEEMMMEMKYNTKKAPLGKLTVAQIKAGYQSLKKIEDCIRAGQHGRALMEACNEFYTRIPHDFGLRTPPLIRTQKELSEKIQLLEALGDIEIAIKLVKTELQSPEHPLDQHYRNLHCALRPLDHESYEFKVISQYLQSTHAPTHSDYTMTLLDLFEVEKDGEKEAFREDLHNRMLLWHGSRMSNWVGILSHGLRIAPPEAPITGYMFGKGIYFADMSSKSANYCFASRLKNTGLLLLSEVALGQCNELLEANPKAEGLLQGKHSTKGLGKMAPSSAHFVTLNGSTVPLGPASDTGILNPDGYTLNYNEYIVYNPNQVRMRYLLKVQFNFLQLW

CC(C)NCC(O)COc1cccc2ccccc12 (stereo unspecified) [PROPRANOLOL]
Papp A→B at 1.5 h, 10 µM [1]: 3.4 ×10⁻⁶ cm/s

OB1NN=C(c2ccccc2)c2cc(F)ccc21
Activity (Staphylococcus aureus [2]): inactive | MIC (Candida albicans [3]): > 128 µM

OB1ON=Cc2ccccc21
percent of hepatic blood flow [4]: 81.2% | Papp B→A at 1.5 h, 10 µM [5]: 4.4 ×10⁻⁶ cm/s | pKa [6]: 5.5 | logP [7]: 1.23 | half-life at 1 µM [8]: 0.785 h | remaining at 730 h [9]: > 99% | hepatocyte CLint at 1 µM [10]: 29.7 µL/min/1e6 cells | MIC (Candida albicans [3]): 16 µM (≈ 2.35 µg/mL) | efflux ratio at 1.5 h, 10 µM [11]: 0.13 | pKa [12]: 7.1 | solubility kinetic at 2 h [13]: ≥ 386 µM | logD at 1 h [14]: ~0.65 | fraction unbound at 6 h, 1 µM [15]: 0.71 | Papp A→B at 1.5 h, 10 µM [1]: 33 ×10⁻⁶ cm/s

C[C@H]1O[C@@H](O[C@H]2[C@@H](O)C[C@H](O[C@H]3[C@@H](O)C[C@H](O[C@H]4CC[C@@]5(C)[C@H](CC[C@@H]6[C@@H]5C[C@@H](O)[C@]5(C)[C@@H](C7=CC(=O)OC7)CC[C@]65O)C4)O[C@@H]3C)O[C@@H]2C)C[C@H](O)[C@@H]1O [DIGOXIN]
Papp B→A at 1.5 h, 10 µM [5]: 13.1 ×10⁻⁶ cm/s | efflux ratio at 1.5 h, 10 µM [11]: 13.4 | Papp A→B at 1.5 h, 10 µM [1]: 1 ×10⁻⁶ cm/s

O=C(c1cc(CC2=NNB(O)c3ccccc32)ccc1F)N1CCN(C(=O)C2CC2)CC1
IC50 [16]: ~540 nM | IC50 [17]: 120 nM

OB1ON=C(c2ccccc2)c2ccccc21
percent of hepatic blood flow [4]: < 36.1% | Papp B→A at 1.5 h, 10 µM [5]: 4 ×10⁻⁶ cm/s | pKa [6]: ~5.5 | logP [7]: 2.6 | half-life at 1 µM [8]: > 6 h | remaining at 730 h [9]: > 99% | hepatocyte CLint at 1 µM [10]: < 3.9 µL/min/1e6 cells | MIC (Candida albicans [3]): 32 µM (≈ 7.14 µg/mL) | efflux ratio at 1.5 h, 10 µM [11]: 0.12 | pKa [12]: 7 | solubility kinetic at 2 h [13]: ≥ 403 µM | logD at 1 h [14]: 0.71 | fraction unbound at 6 h, 1 µM [15]: 0.102 | Papp A→B at 1.5 h, 10 µM [1]: 34.5 ×10⁻⁶ cm/s | MIC (Staphylococcus aureus [18]): 128 µM (≈ 28.5 µg/mL)

N#Cc1ccc(Oc2ccc3c(c2)COB3O)cc1
inhibition [19]: 11%

OB1ON=Cc2cc(-c3ccc(F)cc3)ccc21
MIC (Candida albicans [3]): 4 µM (≈ 0.964 µg/mL)

CCCSc1ccc2nc(NC(=O)OC)[nH]c2c1 [ALBENDAZOLE]
logD at 1 h [14]: 3.57

OB1ON=Cc2cc(F)ccc21
Activity (Staphylococcus aureus [2]): inactive | MIC (Candida albicans [3]): 8 µM (≈ 1.32 µg/mL)

N#Cc1ccc(Oc2ccc3c(c2)C=NNB3O)cc1
inhibition [20]: 5%

CN[C@H](CC(C)C)C(=O)N[C@H]1C(=O)N[C@@H](CC(N)=O)C(=O)N[C@H]2C(=O)N[C@H]3C(=O)N[C@H](C(=O)N[C@H](C(=O)O)c4cc(O)cc(O)c4-c4cc3ccc4O)[C@H](O)c3ccc(c(Cl)c3)Oc3cc2cc(c3O[C@@H]2O[C@H](CO)[C@@H](O)[C@H](O)[C@H]2O[C@H]2C[C@](C)(N)[C@H](O)[C@H](C)O2)Oc2ccc(cc2Cl)[C@H]1O [VANCOMYCIN]
MIC (Staphylococcus aureus [18]): 4 µM (≈ 5.8 µg/mL)

OB1NN=Cc2cc(-c3ccc(C(F)(F)F)cc3)ccc21
Activity (Candida albicans [21]): inactive

OB1OCc2ccccc21 [BENZOXABOROLE]
pKa [6]: 7.4 | pKa [12]: 9.2

OB1OCc2cc(F)ccc21 [TAVABOROLE]
pKa [6]: 7.4 | MIC (Candida albicans [3]): 1 µM (≈ 0.152 µg/mL) | solubility kinetic at 2 h [13]: > 658 µM | fraction unbound at 6 h, 1 µM [15]: 0.34 | MIC (Staphylococcus aureus [18]): 128 µM (≈ 19.4 µg/mL)

O=C(c1cc(CC2=NOB(O)c3ccccc32)ccc1F)N1CCN(C(=O)C2CC2)CC1
inhibition [22]: inactive | inhibition [23]: 18% | IC50 [16]: > 1000 nM | IC50 [17]: > 1000 nM

CN(C)CCCN1c2ccccc2CCc2ccccc21 [IMIPRAMINE]
solubility kinetic at 2 h [13]: 457 µM (≈ 128 µg/mL)

OB1ON=Cc2cc(-c3ccoc3)ccc21
MIC (Candida albicans [3]): 2 µM (≈ 0.426 µg/mL)

COc1ccc(C2=NOB(O)c3ccccc32)cc1
MIC (Candida albicans [3]): 32 µM (≈ 8.1 µg/mL) | MIC (Staphylococcus aureus [18]): 64 µM (≈ 16.2 µg/mL)

COc1ccc2c(c1)C(c1ccccc1)=NOB2O
MIC (Staphylococcus aureus [18]): 8 µM (≈ 2.02 µg/mL)

N#Cc1ccc(Oc2ccc3c(c2)C(c2ccccc2)=NOB3O)cc1
inhibition [20]: 15%

OB1NN=Cc2ccccc21
Activity (Candida albicans [21]): inactive | percent of hepatic blood flow [4]: < 36.1% | Papp B→A at 1.5 h, 10 µM [5]: 30.6 ×10⁻⁶ cm/s | pKa [6]: > 14 | logP [7]: 1.94 | half-life at 1 µM [8]: > 6 h | remaining at 730 h [9]: > 99% | hepatocyte CLint at 1 µM [10]: < 3.9 µL/min/1e6 cells | efflux ratio at 1.5 h, 10 µM [11]: 1 | pKa [12]: > 14 | solubility kinetic at 2 h [13]: ≥ 439 µM | logD at 1 h [14]: 2.03 | fraction unbound at 6 h, 1 µM [15]: 0.082 | Papp A→B at 1.5 h, 10 µM [1]: 30.1 ×10⁻⁶ cm/s

OC(Cn1cncn1)(Cn1cncn1)c1ccc(F)cc1F [FLUCONAZOLE]
MIC (Candida albicans [3]): 4 µM (≈ 1.23 µg/mL)

C[C@]12CC[C@H]3[C@@H](CCC4=CC(=O)CC[C@@]43C)[C@@H]1CC[C@@H]2O [TESTOSTERONE]
percent of hepatic blood flow [4]: 89.1% | half-life at 1 µM [8]: 0.417 h | hepatocyte CLint at 1 µM [10]: 60.2 µL/min/1e6 cells

COC(=O)C1=C(C)NC(C)=C(C(=O)OCCN(C)Cc2ccccc2)C1c1cccc([N+](=O)[O-])c1 (stereo unspecified) [NICARDIPINE]
solubility kinetic at 2 h [13]: 4.7 µM (≈ 2.25 µg/mL)

OB1ON=Cc2cc(-c3ccc(C(F)(F)F)cc3)ccc21
MIC (Candida albicans [3]): 0.125 µM (≈ 0.0364 µg/mL)

OB1NN=C(c2ccccc2)c2ccccc21
percent of hepatic blood flow [4]: 65.2% | Papp B→A at 1.5 h, 10 µM [5]: 22.1 ×10⁻⁶ cm/s | pKa [6]: > 14 | logP [7]: 3.72 | half-life at 1 µM [8]: 1.81 h | remaining at 730 h [9]: > 99% | hepatocyte CLint at 1 µM [10]: 12.8 µL/min/1e6 cells | efflux ratio at 1.5 h, 10 µM [11]: 0.82 | pKa [12]: > 13 | solubility kinetic at 2 h [13]: 189 µM (≈ 42.1 µg/mL) | logD at 1 h [14]: 3.44 | fraction unbound at 6 h, 1 µM [15]: 0.0141 | Papp A→B at 1.5 h, 10 µM [1]: 26.9 ×10⁻⁶ cm/s

CCCC(=O)Nc1ccc(OCC(O)CNC(C)C)c(C(C)=O)c1 (stereo unspecified) [ACEBUTOLOL]
fraction unbound at 6 h, 1 µM [15]: 0.707

OB1ON=Cc2cc(-c3ccccc3)ccc21
MIC (Candida albicans [3]): 8 µM (≈ 1.78 µg/mL)

O=C(Nc1ccc2c(c1)B(O)NN=C2)c1ccc(F)cc1C(F)(F)F
Activity (Staphylococcus aureus [2]): inactive

O=C(Nc1ccc2c(c1)B(O)NN=C2c1ccccc1)c1ccc(F)cc1C(F)(F)F
MIC (Staphylococcus aureus [18]): 64 µM (≈ 27.3 µg/mL)

OB1ON=C(c2ccccc2)c2cc(F)ccc21
MIC (Candida albicans [3]): 16 µM (≈ 3.86 µg/mL) | MIC (Staphylococcus aureus [18]): 64 µM (≈ 15.4 µg/mL)

N#Cc1ccc(Oc2ccc3c(c2)C=NOB3O)cc1
Activity (Candida albicans [21]): inactive | inhibition [20]: 23%

OB1ON=Cc2cc(-c3ccsc3)ccc21
MIC (Candida albicans [3]): 2 µM (≈ 0.458 µg/mL)

OB1NN=Cc2cc(F)ccc21
MIC (Candida albicans [3]): > 128 µM

COc1ccc(C2=NOB(O)c3ccccc32)cc1Br
MIC (Staphylococcus aureus [18]): 16 µM (≈ 5.31 µg/mL)
